The values that follow come from ChEMBL document CHEMBL5365427, “Discovery and Structural Optimization of Covalent ZAP-70 Kinase Inhibitors against Psoriasis” (J Med Chem, 2023).

The nature of data set [1]: GSH reactivity of compound at pH 7.4 PBS buffer assessed as half life incubated for 180 min by HPLC-MS analysis. The class given is physicochemical. To be noted: glutathione (GSH) in PBS buffer.
Data set [2] deals with T1, Tyrosine-protein kinase SYK (Homo sapiens, UniProt P43405). As to the kind of experiment: Inhibition of SYK (unknown origin) using ULight-TK peptide as substrate at 1 uM incubated for 120 mins in presence of ATP by Lance Ultra Kinase assay relative to control.
The test system of a further data set is Splenocyte. As to the kind of experiment: Immunosuppressive activity in BALB/c mouse Splenocyte assessed as inhibition of concanavalin A induced T-cell proliferation incubated for 48 hrs by [3H]-thymidine incorporation based beta scintillation counter analysis. It is filed as functional. On the technique in general: Uptake of a labelled nucleoside into DNA is a usual measure of proliferation.

For data set [3], the target named is T1, Tyrosine-protein kinase SYK. As to the kind of experiment: Inhibition of SYK (unknown origin) using ULight-TK peptide as substrate incubated for 120 mins in presence of ATP by Lance Ultra Kinase assay.
In data set [4] the target is T2, Tyrosine-protein kinase ZAP-70 (Homo sapiens, UniProt P43403).
T2 sequence (P43403 whole entry): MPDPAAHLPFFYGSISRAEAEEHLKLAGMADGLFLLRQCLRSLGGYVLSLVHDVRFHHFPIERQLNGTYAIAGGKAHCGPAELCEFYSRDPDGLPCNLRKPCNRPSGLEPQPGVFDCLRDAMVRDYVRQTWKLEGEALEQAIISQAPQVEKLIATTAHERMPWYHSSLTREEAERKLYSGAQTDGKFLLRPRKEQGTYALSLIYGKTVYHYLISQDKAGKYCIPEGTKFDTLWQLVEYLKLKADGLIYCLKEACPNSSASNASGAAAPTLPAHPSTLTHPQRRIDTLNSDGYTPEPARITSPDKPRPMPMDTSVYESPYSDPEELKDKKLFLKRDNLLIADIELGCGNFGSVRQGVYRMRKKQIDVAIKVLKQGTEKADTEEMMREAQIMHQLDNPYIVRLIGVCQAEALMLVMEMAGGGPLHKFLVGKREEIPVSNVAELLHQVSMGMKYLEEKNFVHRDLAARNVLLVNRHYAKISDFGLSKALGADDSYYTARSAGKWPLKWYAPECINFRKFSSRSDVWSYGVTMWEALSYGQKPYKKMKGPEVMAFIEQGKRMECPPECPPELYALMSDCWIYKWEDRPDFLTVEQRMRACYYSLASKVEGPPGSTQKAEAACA
As to the kind of experiment: Inhibition of ZAP-70 (unknown origin) using ULight-TK peptide as substrate incubated for 120 mins in presence of ATP by Lance Ultra Kinase assay.

Activity calls are given as the source filed them. No cut-off for these calls is given here.

As for `C=CC(=O)Nc1cc(CNc2nc(Nc3cc(OC)cc(OC)c3)c(C(N)=O)c3nccn23)ccn1`, in data set [1], the half-life is 23 min. Also, the inhibition in data set [2] is 7%.

Consider `C=CC(=O)Nc1cccc(CN(C)c2nc(Nc3cc(OC)cc(OC)c3)c(C(N)=O)c3nccn23)c1`, for which, in data set [2], the inhibition was -5.9%. Regarding `C=CC(=O)Nc1cccc(CNc2nc(Nc3cc(OC)cc(OC)c3)c(C(N)=O)c3nccn23)c1`, in data set [1], the half-life is 254 min. Further, the inhibition in data set [2] was 15.4%. For the molecule `C=CC(=O)Nc1ccc(F)c(CNc2nc(Nc3cc(OC)cc(OC)c3)c(C(N)=O)c3nccn23)c1`, in data set [2], the inhibition turned out to be 6.2%. Take `C=CC(=O)Nc1cc(CNc2nc(Nc3ccc(N4CCOCC4)c(OCC)c3)c(C(N)=O)c3nccn23)ccc1Cl`: the outcome in the data set with Splenocyte was Active. Further, the inhibition in data set [2] is 82%. Further, in data set [3], the half-inhibitory concentration (IC50) stood at 641 nM. For the molecule `C=CC(=O)N1CCCc2c(CNc3nc(Nc4cc(OC)cc(OC)c4)c(C(N)=O)c4nccn34)cccc21`, the inhibition in data set [2] worked out at 10.9%.

For the molecule `C=CC(=O)Nc1cc(CNc2nc(Nc3ccc(N4CCOCC4)c(CO)c3)c(C(N)=O)c3nccn23)ccc1Cl`, in data set [2], the inhibition amounted to 40.2%. In addition, the 50% inhibitory concentration (IC50) in data set [3] was 4280 nM.

Take `C=CC(=O)Nc1cc(CNc2nc(Nc3ccc(N4CCCN(C)CC4)c(OC)c3)c(C(N)=O)c3nccn23)ccc1Cl`: the result in the data set on Splenocyte was Active. Besides, the inhibition in data set [2] worked out at 71.2%. Besides, the half-inhibitory concentration (IC50) in data set [3] is 1280 nM.

Take `C=CC(=O)Nc1cccc(C(C)Nc2nc(Nc3cc(OC)cc(OC)c3)c(C(N)=O)c3nccn23)c1` (stereo unspecified): in data set [2], the inhibition was 10.1%.

For the molecule `C=CC(=O)Nc1cc(CNc2nc(Nc3cc(OC)cc(N4CCOCC4)c3)c(C(N)=O)c3nccn23)ccc1Cl`, the inhibition in data set [2] came out at 17.7%. For the molecule `C=CC(=O)Nc1cc(CNc2nc(Nc3ccc(N4CCOCC4)cc3OC)c(C(N)=O)c3nccn23)ccc1Cl`, the inhibition in data set [2] was 3.2%. For `C=CC(=O)Nc1cc(CNc2nc(Nc3ccc(N4CCN(C5COC5)CC4)c(OC)c3)c(C(N)=O)c3nccn23)ccc1Cl`, the result in the data set on Splenocyte was Active. For the same molecule, the inhibition in data set [2] amounted to 87.5%. Further, the IC50 in data set [3] was 598 nM. Take `COc1cc(Nc2nc(NCc3cccc(NC(=O)CCl)c3)n3ccnc3c2C(N)=O)cc(OC)c1`: in the data set on Splenocyte, the outcome was Active. Moreover, the inhibition in data set [2] was 20.7%. The half-inhibitory concentration (IC50) in data set [3] was > 10000 nM; in data set [4], 44.8 nM. As to `C=CC(=O)Nc1cc(CNc2nc(Nc3cc(OC)cc(OC)c3)c(C(N)=O)c3nccn23)ccc1C(F)(F)F`, the inhibition in data set [2] came to 0.5%. In the case of `C=CC(=O)Nc1cccc(CNc2nc(Nc3cc(OC)cc(OC)c3)c(C(N)=O)c3nccn23)c1F`, the inhibition in data set [2] was 44.7%. In data set [3], the 50% inhibitory concentration (IC50) came out at 7000 nM. For the molecule `C=CC(=O)Nc1cc(F)cc(CNc2nc(Nc3cc(OC)cc(OC)c3)c(C(N)=O)c3nccn23)c1`, the inhibition in data set [2] was 0.8%. For `C=CC(=O)Nc1cc(CNc2nc(Nc3cc(OC)cc(OC)c3)c(C(N)=O)c3nccn23)ccc1Cl`, in data set [1], the half-life turned out to be 81 min. Also, the inhibition in data set [2] was found to be 17.5%. For the same molecule, in data set [3], the half-maximal inhibitory concentration (IC50) is > 10000 nM.

With `C=CC(=O)Nc1cc(CNc2nc(Nc3cc(OC)cc(OC)c3)c(C(N)=O)c3nccn23)ccc1C`, the inhibition in data set [2] was found to be 15.1%. As for `C=CC(=O)Nc1cc(CNc2nc(Nc3ccc(N4CCN(C)CC4)c(OC)c3)c(C(N)=O)c3nccn23)ccc1Cl`, in the data set with Splenocyte, the result was Active. In data set [2], the inhibition stood at 84%. Further, the IC50 in data set [3] turned out to be 532 nM.

Turning to `C=CC(=O)Nc1cc(CNc2nc(Nc3cc(OC)cc(OC)c3)c(C(N)=O)c3nccn23)ccc1O`, the inhibition in data set [2] came out at 9%.

With `C=CC(=O)Nc1cc(CNc2nc(Nc3ccc(N4CCOCC4)c(NC(C)=O)c3)c(C(N)=O)c3nccn23)ccc1Cl`, the inhibition in data set [2] was determined as 18.8%. For the molecule `C=CC(=O)Nc1cc(CNc2nc(Nc3ccc(N4CCC(O)CC4)c(OC)c3)c(C(N)=O)c3nccn23)ccc1Cl`, the outcome in the data set with Splenocyte was Active. Further, the inhibition in data set [2] stood at 47.1%. Moreover, in data set [3], the IC50 amounted to 1290 nM. With `C=CC(=O)Nc1cc(CNc2nc(Nc3ccc(N4CCOCC4)c(OC(C)C)c3)c(C(N)=O)c3nccn23)ccc1Cl`, the inhibition in data set [2] worked out at 27.6%.

For `C=CC(=O)Nc1cc(CNc2nc(Nc3cc(OC)cc(OC)c3)c(C(N)=O)c3nccn23)ccc1F`, the half-life in data set [1] turned out to be 64 min. Further, the inhibition in data set [2] stood at 19.8%. The concentration for half-maximal inhibition (IC50) in data set [3] was > 10000 nM. Regarding `C=CC(=O)Nc1cccc(CNc2nc(Nc3cc(OC)cc(OC)c3)c(C(N)=O)c3nccn23)c1Cl`, the inhibition in data set [2] was determined as 13.2%. Still for that read-out and setting: the figure for `C=CC(=O)Nc1ccc2c(c1)CN(c1nc(Nc3cc(OC)cc(OC)c3)c(C(N)=O)c3nccn13)CC2` is 22.3%; for `C=CC(=O)Nc1ccc(Cl)c(CNc2nc(Nc3cc(OC)cc(OC)c3)c(C(N)=O)c3nccn23)c1` it is 6.8%. In the case of `C=CC(=O)Nc1cc(CNc2nc(Nc3ccc(N4CCOCC4)cc3)c(C(N)=O)c3nccn23)ccc1Cl`, in data set [2], the inhibition stood at 61.4%. For the same molecule, in data set [3], the IC50 stood at 5530 nM. As for `C=CC(=O)Nc1cc(Cl)cc(CNc2nc(Nc3cc(OC)cc(OC)c3)c(C(N)=O)c3nccn23)c1`, the inhibition in data set [2] came to 8.2%.

For orientation: half-life means how long it takes for the measured level to halve. As usually defined, the inhibition is the drop in the measured response relative to a control, in per cent. The IC50 is the concentration at which inhibition is half-maximal.
